Counter-ions that a name gives are not always drawn.
Test system: male Sprague Dawley rats
Experiment: Rat mustard oil model of visceral pain
Format: in vivo
Conditions: data combined from two studies
Procedure: All behavioural responses consistent with the presence of pain were determined following intra rectal injection of mustard oil in male Sprague Dawley rats. Typical behavioural responses consistent with the presence of pain following intra-colonic mustard oil injection include: arching, abdominal lifting, abdominal tensing, stretching, extending the rear leg (when lying down), raising and lowering the testicles, tip-toeing and writhing.
Male Sprague Dawley rats (130 g-160 g) were briefly sedated with 50% oxygen/50% carbon dioxide and 0.2 ml of 3% mustard oil injected into the colorectum, 1.5 cm from the anus. The anus was plugged with vaseline and animals placed in observational cages to which they had previously been acclimatised for 45 minutes prior to mustard oil injection. The number of visceral pain related behaviours, which consisted primarily of abdominal arching, were counted over a 25 minute period and the animals culled by cervical dislocation.
In separate studies, the effects of alosetron (0.1, 0.3 and 1.0 mg/kg n=10 per group), gabapentin (10, 30 and 100 mg/kg n=10 per group) and amitriptyline (3, 10 and 30 mg/kg n=9-10 per group) or vehicle (saline for alosetron and amitriptyline 10% 1-methyl-2-pyrolidone in saline for gabapentin n=10 per study) given sub cutaneously 15 minutes prior to injection of 3% mustard oil were examined on pain behaviour. Results are expressed as mean reduction in percentage of behaviours compared to vehicle treated animals and were statistically compared to vehicle treated animals using a one way ANOVA with Dunnett's comparison, p<0.05 considered significant.
The effect of the compound of Example 1 (0.1, 0.3, 1.0, 3.0, 10 and 30 mg/kg, n 9-20 per dosage) or vehicle (1% methyl cellulose, n=20) given orally 60 minutes prior to injection of mustard oil (3% mustard oil, 70% ethanol in saline) were examined on pain behaviour. The total number of visceral pain related behaviours, which consisted primarily of abdominal arching, were counted over a 25 minute period and the animals culled by cervical dislocation. Behaviours were normalised as the percentage of the vehicle group mean and expressed as mean percentage reductions. Data was combined from two studies and normalised as the percentage of the vehicle group mean for each individual study and expressed as a mean percentage reduction for both studies. Percentage reduction of behaviours compared to vehicle treated animals were analysed statistically using a one way ANOVA with Dunnett's comparison, p<0.05 considered significant.

SMILES: CC(C)(NCc1cc(-c2ccc(C(F)(F)F)cc2)ccn1)C(N)=O [Example E1, 2-Methyl-N^2-({4-[4-trifluoromethyl)phenyl]-2-pyridinyl}methyl)alaninamide hydrochloride]
- reduction in behaviours compared to vehicle treated animals (0.1 mg/kg orally 60 minutes prior to mustard oil): 16%
- reduction in behaviours compared to vehicle treated animals (0.3 mg/kg orally 60 minutes prior to mustard oil): 24%
- reduction in behaviours compared to vehicle treated animals (1.0 mg/kg orally 60 minutes prior to mustard oil): 41%
- reduction in behaviours compared to vehicle treated animals (3.0 mg/kg orally 60 minutes prior to mustard oil): 64%
- reduction in behaviours compared to vehicle treated animals (10 mg/kg orally 60 minutes prior to mustard oil): 76%
- reduction in behaviours compared to vehicle treated animals (30 mg/kg orally 60 minutes prior to mustard oil): 85%
